Experimental data taken from US12117455B2, “Early detection marker for degenerative osteoarthritis with TRIM24-RIP3 axis” (AJOU UNIVERSITY INDUSTRY-ACADEMIC COOPERATION FOUNDATION, priority 2020, dated 2024).
“Also recorded” adds a separate entry of the source. Where a SMILES comes first, the peptide text is derived from it. The star is where a group is joined. Cbz = O=C(OCc1ccccc1)*

Tests used:
chondrocytes = assay: Cell viability / cytotoxicity by LDH assay in chondrocytes; assay type: cell-based, mouse; conditions: for cytotoxic effects on chondrocytes (LDH release assay, Western blotting, phase-contrast microscopy): chondrocytes infected with Ad-C or Ad-Rip3
Experimental: Mouse articular chondrocytes were isolated from the cartilage of ICR mice on the 5th day after birth, enzymatically digested with protease and collagenase, and then maintained in DMEM (Capricorn Scientific GmbH: Hessen, Germany) supplemented with 10% FBS, 100 units/mL penicillin and 100 μg/mL streptomycin. On the 3rd day, cells (4.25×10^5 cells/well) were infected with adenovirus or treated with recombinant protein. Mlkl+/+ and Mlkl−/− MEFs were maintained in DMEM supplemented with 10% FBS and penicillin-streptomycin. Cell viability was assessed using a lactate dehydrogenase (LDH) colorimetric assay kit (Bio Vision (Milpitas, CA, USA)). Chondrocytes were dispensed into a 96-well dish (1.5×10^4 cells/well), cultured for 24 hours (5% CO2, 37° C.), and treated with various concentrations of AZ-628, selumetinib, and neratinib for 24 hours. The supernatant was analyzed using a microplate reader at 495 nm. Untreated (100% viable) and Triton X-100 treated (0% viable) samples were used for normalization. The viability was calculated as follows.

[1] = tested on: RIP3-overexpressing chondrocytes; assay: MMP3, MMP13 and COX2 expression (RT-PCR, qPCR, Western blotting) in Ad-Rip3-infected chondrocytes; assay type: cell-based, mouse
Experimental: (§1) Mouse articular chondrocytes were isolated from the cartilage of ICR mice on the 5th day after birth, enzymatically digested with protease and collagenase, and then maintained in DMEM (Capricorn Scientific GmbH: Hessen, Germany) supplemented with 10% FBS, 100 units/mL penicillin and 100 μg/mL streptomycin. On the 3rd day, cells (4.25×10^5 cells/well) were infected with adenovirus or treated with recombinant protein. Mlkl+/+ and Mlkl−/− MEFs were maintained in DMEM supplemented with 10% FBS and penicillin-streptomycin.
(§2) Cells were lysed in an M2 buffer, and mouse tissues were lysed in a lysis buffer containing 50 mM Tris-HCl (pH 7.5), 150 mM NaCl, 50 mM NaF, 1% Tween 20, 0.2% NP-40, and a protease inhibitor. Equal amounts of cell extracts were separated using SDS-PAGE (6% stacking gel and 10% running gel) and analyzed through immunoblotting.
Total RNA was extracted from articular chondrocytes using a TRIzol reagent (Molecular Research Center (Cincinnati, OH, USA)) and then reverse-transcribed into complementary DNA (cDNA) using ImProm-II™ Transcriptase (Promega (Madison, WI, USA)), followed by amplification through PCR or qPCR using the primers shown in Table 2 below. qPCR was performed using SYBR premix Ex Taq (TaKaRa Bio., Kusatsu, Shiga, Japan), and the results thereof were normalized to Gapdh and represented as fold changes compared to controls.

RIP3 = biological target: T1, RIP3 (Mus musculus, UniProt Q9QZL0); assay: RIP3 kinase activity / RIP3 phosphorylation by Western blotting in Ad-Rip3-infected chondrocytes; assay type: cell-based; conditions: RIP3-overexpressing chondrocytes
T1 construct: host or cells: primary mouse articular chondrocytes (ICR mice), adenoviral infection
Experimental: as §1, §2

MLKL = MLKL protein levels in chondrocytes treated with proteasome or lysosome inhibitors (Western blotting); assay type: cell-based, mouse; conditions: treatment for 6 hours
Experimental: as §2

T1 sequence (Q9QZL0 whole entry): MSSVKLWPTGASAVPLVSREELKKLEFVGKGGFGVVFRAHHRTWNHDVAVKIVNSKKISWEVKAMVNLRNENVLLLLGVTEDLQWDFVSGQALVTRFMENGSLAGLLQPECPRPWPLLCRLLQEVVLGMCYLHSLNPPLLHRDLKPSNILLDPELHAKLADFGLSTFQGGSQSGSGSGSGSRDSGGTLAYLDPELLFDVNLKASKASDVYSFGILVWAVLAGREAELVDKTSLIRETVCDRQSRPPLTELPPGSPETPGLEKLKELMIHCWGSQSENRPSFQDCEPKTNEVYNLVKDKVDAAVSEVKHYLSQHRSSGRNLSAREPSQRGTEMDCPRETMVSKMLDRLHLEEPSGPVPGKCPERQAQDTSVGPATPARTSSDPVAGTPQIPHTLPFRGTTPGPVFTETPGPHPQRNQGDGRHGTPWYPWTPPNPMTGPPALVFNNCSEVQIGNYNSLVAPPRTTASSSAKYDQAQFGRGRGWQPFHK

Compound | cytotoxic effects on chondrocytes (LDH release assay, Western blotting, phase-contrast microscopy) (chondrocytes) | MLKL protein levels (MLKL) | other results
Cc1ccc(NC(=O)c2cccc(C(C)(C)C#N)c2)cc1Nc1ccc2ncn(C)c(=O)c2c1 [AZ-628] | without chondrocyte toxicity | – | cytotoxic effects in chondrocytes (LDH assay) (chondrocytes; at 2 μM, 24 hours): no toxicity; inhibition of osteoarthritis manifestations in RIP3-overexpressing chondrocytes ([1]; compared with selumetinib or neratinib): more effectively inhibited; Mmp3 and Cox2 expression (osteoarthritis-related gene expression) ([1]; qPCR, RIP3-overexpressing chondrocytes treated with RIP3 kinase inhibitors): decreased; also recorded: attenuated; RIP3 (kinase) activity (RIP3): potent RIP3 kinase inhibitor; also recorded: attenuates RIP3 kinase activity
CCN(CC)CCCC(C)Nc1ccnc2cc(Cl)ccc12 (stereo not drawn) [CQ, Chloroquine diphosphate] | – | did not change | –
CC(C)S(=O)(=O)c1ccc2nccc(Nc3ccc4scnc4c3)c2c1 [GSK 872] | greater cytotoxic effects on chondrocytes than AZ-628 | – | –
CC(C)C[C@@H](C=O)NC(=O)[C@H](CC(C)C)NC(=O)[C@H](CC(C)C)NC(=O)OCc1ccccc1 [MG132] (Cbz-Leu-Leu-Leu-aldehyde) | – | did not change | –
HS-1371 | greater cytotoxic effects on chondrocytes than AZ-628 | – | –
